Reference: patent publication US20090082304A1, “Methods of Treating Hematological Malignancies with Nucleoside Analog Drugs” (NORTHWESTERN UNIVERSITY, priority 2004, published 2009)

Test system: total protein levels of the signaling proteins in myeloma cells
Experiment: Immunoblot reprobe with total protein antibodies
Assay type: cell-based
Protocol: 5×10^6 were cells treated with 10 μM 8-NH2-Ado for the indicated times and harvested. Cell pellets were washed with cold phosphate-buffered saline (PBS; 8.1 g NaCl, 1.14 g Na2HPO4, 0.22 g KCl, and 0.25 g/L KH2PO4) and incubated with lysis buffer (50 mM HEPES, 150 mM NaCl, 1.5 mM MgCl2, 1 mM EDTA pH 8.0, 100 mM NaFI, 10 mM Na Pyrophosphate, 500 μM PMSF, 0.5% Triton X-100, 10% glycerol) at 4° C. for one hour. Lysates were centrifuged at 4° C. for 1 minute at 9000×g, and the supernatants were collected and stored at −20° C. Protein concentration was determined by Bio-Rad protein assay (BioRad Laboratories, Hercules, Calif.). Protein, at a concentration of 30 μg, was mixed with sample buffer (125 mM Tris, pH 6.8, 4% SDS, 20% glycerol, 100 mM Dithiothreitol (DTT), and 0.05% bromophenol blue), and fractionated on a pre-cast 8-16% Tris-Glycine gel (Invitrogen/Novex, Carlsbad, Calif.). Proteins were then transferred to a Polyvinylidene Fluoride (PVDF) membrane (Immobilon-P, Millipore, Bedford, Mass.): Following protein transfer, membranes were blocked with 5% non-fat milk in PBS-T (PBS with 0.1% Tween), incubated with the primary antibody overnight at 4° C. and subsequently with horseradish peroxidase linked secondary antibody (Amersham, Arlington Heights, Ill.). Blots were developed using ECL Plus Chemiluminescent Western Blotting Detection reagent (Amersham, Arlington Heights, Ill.) and the signal was visualized with X-ray film (Hyperfilm, Amersham, Arlington Heights, Ill.). For reprobing purposes, blots were stripped using Restore Western Blot Stripping Buffer from Pierce Biotechnology (Rockford, Ill.). Phospho-MKK3/6 (Ser189/207), phospho-p38 (Thr180/Tyr182), phospho-ATF-2 (Thr69/71), phospho-c-Raf (Ser259), phospho-MEK1/2 (Ser217/221), total MEK1/2, phospho-ERK1/2 (Thr202/Tyr204), total ERK1/2, phospho-p90RSK (Ser380), total RSK, phospho-PDK1 (Ser241), total PDKI, phospho-PTEN (Ser380), total PTEN, phospho-Akt (Ser473), total Akt, phospho-GSK-3β (Ser9), total GSK-3β, phospho-FKHRLI (Thr32)/-FKHR (Thr24), phospho-FKHR (Ser256) primary antibodies were obtained from Cell Signaling Technology (Beverly, Mass.). Total MKK3, total MKK6, total p38, total ATF-2, total c-Raf, total FKHR, total FKHRLI, phospho-JNK and total JNK were purchased from Santa Cruz Biotechnology (Santa Cruz, Calif.). Caspase 3, caspase 9, and PARP antibodies were obtained from Pharmingen (San Diego, Calif.) and anti-MKP1 from Upstate (Lake Placid, N.Y.). Anti-caspase 8 mouse serum was a generous gift of Dr. Marcus Peter (University of Chicago).
MM.1 S cells were exposed to 10 μM 8-NH2-Ado for 0, 0.5, 1, 2, 4 and 6 hours, after which cells were lysed as previously (Example 2). 30 μg of protein was separated by gel electrophoresis, transferred to PVDF membrane, and probed with phosphorylation-specific antibodies to MKK3/6, p38 MAPK, ATF-2, MEK1/2, ERK1/2, p90RSK, JNK1, PDK1, Akt, FKHRL1 and GSK-3β. […] FIGS. 1A, 1B, 1C and 1D provide the results of the blots.

For Nc1ncnc2c1nc(N)n2[C@@H]1O[C@H](CO)[C@@H](O)[C@H]1O [8-NH2-Ado, 8-amino-adenosine], the “Total protein levels of the p38 MAPK module (MKK3/6, p38, ATF-2)” value (MM.1 S cells, 10 μM, 0-6 hours) was “remain unchanged”, the “total ERK1/2 levels” value (MM.1 S cells, 10 μM, 0-6 hours) was “remain unchanged” and the “total MEK1/2 protein levels” value (MM.1 S cells, 10 μM, 0-6 hours) was “do not change”. The “total p90RSK protein levels” value (MM.1 S cells, 10 μM, 0-6 hours) was “unaffected”, the “total protein levels of Forkhead family members” value (MM.1 S cells, 10 μM, 0-6 hours) was “do not change” and the “total p38 levels” value (RPMI-8226, MDR10V and MM.1 R cells) was “remain unchanged”.
